From ChEMBL document CHEMBL1141727, “Isolation and cytotoxic evaluation of marine sponge-derived norterpene peroxides” (J Nat Prod, 1998)

Columns and labels:
Assay type in all cases: functional
[1] = system: MCF7; assay: Growth inhibition of human MCF7 cells
[2] = system: PO3; assay: Growth inhibition of mouse PO3 cells assessed as zone units at 50 ug/disk by disk diffusion agar colony formation assay
[3] = Growth inhibition of human Hs 578T cells
[4] = system: A498; assay: Growth inhibition of human A498 cells
[5] = system: L1210; assay: Growth inhibition of mouse L1210 cells assessed as zone units at 50 ug/disk by disk diffusion agar colony formation assay
[6] = system: OVCAR-3; assay: Growth inhibition of human OVCAR-3 cells
[7] = Growth inhibition of human H116 cells assessed as zone units at 50 ug/disk by disk diffusion agar colony formation assay
[8] = system: IGROV-1; assay: Growth inhibition of human IGROV1 cells
[9] = system: HL-60(TB); assay: Growth inhibition of human HL-60(TB) cells
[10] = Growth inhibition of mouse M17/ADR cells assessed as zone units at 50 ug/disk by disk diffusion agar colony formation assay
[11] = system: Malme-3M; assay: Growth inhibition of human MALME-3M cells
[12] = system: COLO 205; assay: Growth inhibition of human COLO205 cells
[13] = system: DU-145; assay: Growth inhibition of human DU145 cells
[14] = system: NCI-H226; assay: Growth inhibition of human NCI-H226 cells
[15] = system: NCI-H460; assay: Growth inhibition of human NCI-H460 cells
[16] = system: ACHN; assay: Growth inhibition of human ACHN cells
[17] = system: P388; assay: Growth inhibition of mouse P388 cells assessed as zone units at 50 ug/disk by disk diffusion agar colony formation assay
[18] = system: BT-549; assay: Growth inhibition of human BT549 cells
[19] = system: SW-620; assay: Growth inhibition of human SW620 cells
[20] = system: SK-MEL-2; assay: Growth inhibition of human SK-MEL-2 cells
[21] = system: SN12C; assay: Growth inhibition of human SN12C cells
[22] = system: MDA-N; assay: Growth inhibition of human MDA-N cells
[23] = system: CAKI-1; assay: Growth inhibition of human Caki1 cells
[24] = system: UACC-62; assay: Growth inhibition of human UACC62 cells
[25] = system: HCC 2998; assay: Growth inhibition of human HCC2998 cells
[26] = system: HOP-92; assay: Growth inhibition of human HOP92 cells
[27] = system: SF-295; assay: Growth inhibition of human SF295 cells
[28] = Growth inhibition of human MCF7/ADR resistant cells; conditions: NCI/ADR-RES
[29] = system: SF-539; assay: Growth inhibition of human SF539 cells
[30] = system: MDA-MB-435; assay: Growth inhibition of human MDA-MB-435 cells
[31] = Growth inhibition of human […] cells
[32] = system: KM12; assay: Growth inhibition of human KM12 cells
[33] = system: NCI-H23; assay: Growth inhibition of human NCI-H23 cells
[34] = system: HOP-62; assay: Growth inhibition of human HOP62 cells
[35] = system: SR; assay: Growth inhibition of human SR cells
[36] = system: HCT-15; assay: Growth inhibition of human HCT15 cells
[37] = system: NCI-H322M; assay: Growth inhibition of human NCI-H322M cells
[38] = system: EKVX; assay: Growth inhibition of human EKVX cells
[39] = system: MOLT-4; assay: Growth inhibition of human MOLT4 cells
[40] = system: NCI-H522; assay: Growth inhibition of human NCI-H522 cells
[41] = system: OVCAR-8; assay: Growth inhibition of human OVCAR8 cells
[42] = system: SK-OV-3; assay: Growth inhibition of human SKOV3 cells
[43] = system: SK-MEL-5; assay: Growth inhibition of human SK-MEL-5 cells
[44] = system: RXF 393; assay: Growth inhibition of human […] cells
[45] = system: OVCAR-4; assay: Growth inhibition of human OVCAR4 cells
[46] = system: U-251; assay: Growth inhibition of human U251 cells
[47] = system: T47D; assay: Growth inhibition of human T47D cells
[48] = system: M14; assay: Growth inhibition of human M14 cells
[49] = system: A549; assay: Growth inhibition of human A549 cells
[50] = system: HCT-116; assay: Growth inhibition of human HCT116 cells
[51] = system: UO-31; assay: Growth inhibition of human UO31 cells
[52] = system: 786-0; assay: Growth inhibition of human 786-0 cells
[53] = system: SNB-19; assay: Growth inhibition of human SNB19 cells
[54] = system: UACC-257; assay: Growth inhibition of human UACC257 cells
[55] = system: SNB-75; assay: Growth inhibition of human SNB75 cells
[56] = system: MDA-MB-231; assay: Growth inhibition of human MDA-MB-231 cells
[57] = system: CCRF-CEM; assay: Growth inhibition of human CCRF-CEM cells
[58] = system: SK-MEL-28; assay: Growth inhibition of human SK-MEL-28 cells
[59] = system: HT-29; assay: Growth inhibition of human HT-29 cells
[60] = system: OVCAR-5; assay: Growth inhibition of human OVCAR5 cells
[61] = system: SF-268; assay: Growth inhibition of human SF268 cells
[62] = system: LOX IMVI; assay: Growth inhibition of human LOXIMVI cells
[63] = system: PC-3; assay: Growth inhibition of human PC3 cells
[64] = system: TK-10; assay: Growth inhibition of human TK10 cells
[65] = system: CX-1; assay: Growth inhibition of human CX-1 cells assessed as zone units at 50 ug/disk by disk diffusion agar colony formation assay
[66] = system: MC-38; assay: Growth inhibition of mouse C38 cells assessed as zone units at 50 ug/disk by disk diffusion agar colony formation assay

Compound: CC(=O)CC/C=C(\C)CCC1=C(C)CCCC1(C)C
- GI50 [1]: > 15 µM
- Activity [2]: 40 Zone units
- GI50 [3]: 1.86 µM
- GI50 [4]: > 15 µM
- Activity [5]: 60 Zone units
- GI50 [6]: > 15 µM
- Activity [7]: 30 Zone units
- GI50 [8]: 9.53 µM
- GI50 [9]: 2.88 µM
- Activity [10]: 0 Zone units
- GI50 [11]: > 15 µM
- GI50 [12]: > 15 µM
- GI50 [13]: > 15 µM
- GI50 [14]: > 15 µM
- GI50 [15]: > 15 µM
- GI50 [16]: > 15 µM
- Activity [17]: 60 Zone units
- GI50 [18]: > 15 µM
- GI50 [19]: 6.34 µM
- GI50 [20]: > 15 µM
- GI50 [21]: 9.48 µM
- GI50 [22]: > 15 µM
- GI50 [23]: > 15 µM
- GI50 [24]: > 15 µM
- GI50 [25]: > 15 µM
- GI50 [26]: > 15 µM
- GI50 [27]: > 15 µM
- GI50 [28]: > 15 µM
- GI50 [29]: > 15 µM
- GI50 [30]: > 15 µM
- GI50 [31]: > 15 µM
- GI50 [32]: 8.61 µM
- GI50 [33]: > 15 µM
- GI50 [34]: > 15 µM
- GI50 [35]: 4.94 µM
- GI50 [36]: > 15 µM
- GI50 [37]: > 15 µM
- GI50 [38]: > 15 µM
- GI50 [39]: 2.08 µM
- GI50 [40]: > 15 µM
- GI50 [41]: > 15 µM
- GI50 [42]: > 15 µM
- GI50 [43]: > 15 µM
- GI50 [44]: > 15 µM
- GI50 [45]: > 15 µM
- GI50 [46]: > 15 µM
- GI50 [47]: > 15 µM
- GI50 [48]: < 0.0015 µM
- GI50 [49]: > 15 µM
- GI50 [50]: > 15 µM
- GI50 [51]: > 15 µM
- GI50 [52]: > 15 µM
- GI50 [53]: < 0.0015 µM
- GI50 [54]: > 15 µM
- GI50 [55]: 5.15 µM
- GI50 [56]: > 15 µM
- GI50 [57]: 2.94 µM
- GI50 [58]: > 15 µM
- GI50 [59]: > 15 µM
- GI50 [60]: > 15 µM

Compound: C=C1CCC[C@H]2[C@](C)(CC[C@]3(C)CC[C@@H]([C@@H](C)C(=O)O)OO3)[C@@H](C)CC[C@]12C [SIGMOSCEPTRELLIN C]
- GI50 [1]: 3.79 µM
- Activity [2]: 190 Zone units
- GI50 [4]: 1.59 µM
- Activity [5]: 220 Zone units
- GI50 [6]: 0.99 µM
- Activity [7]: 230 Zone units
- GI50 [8]: 0.1 µM
- GI50 [9]: 0.14 µM
- Activity [10]: 220 Zone units
- GI50 [12]: 0.97 µM
- GI50 [14]: > 5 µM
- GI50 [15]: 0.6 µM
- GI50 [16]: 0.92 µM
- Activity [17]: 220 Zone units
- GI50 [61]: 1.04 µM
- GI50 [18]: 0.96 µM
- GI50 [19]: 1.16 µM
- GI50 [20]: > 5 µM
- GI50 [21]: 0.78 µM
- GI50 [22]: 0.91 µM
- GI50 [23]: 0.6 µM
- GI50 [25]: 1.03 µM
- GI50 [26]: 1.08 µM
- GI50 [27]: 0.82 µM
- GI50 [28]: 0.77 µM
- GI50 [29]: 1.07 µM
- GI50 [62]: 0.16 µM
- GI50 [30]: 2.06 µM
- GI50 [32]: 0.95 µM
- GI50 [33]: 1 µM
- GI50 [34]: 1.04 µM
- GI50 [36]: 1.16 µM
- GI50 [37]: 4.19 µM
- GI50 [38]: 1.09 µM
- GI50 [39]: 0.84 µM
- GI50 [41]: 2.53 µM
- GI50 [42]: 0.97 µM
- GI50 [43]: 1.94 µM
- GI50 [63]: 1.77 µM
- GI50 [44]: 2.95 µM
- GI50 [45]: 0.95 µM
- GI50 [64]: 1.49 µM
- GI50 [46]: 0.93 µM
- GI50 [47]: 0.86 µM
- GI50 [48]: > 5 µM
- GI50 [49]: 0.94 µM
- GI50 [50]: 1.06 µM
- GI50 [51]: 0.9 µM
- GI50 [52]: 0.5 µM
- GI50 [53]: > 5 µM
- GI50 [54]: > 5 µM
- GI50 [55]: 0.83 µM
- GI50 [56]: 1.81 µM
- GI50 [58]: 2.37 µM
- GI50 [59]: 1.03 µM
- GI50 [60]: 2.72 µM

Compound: CC1=C(CC/C(C)=C/CC[C@@]2(C)CC[C@H]([C@H](C)C(=O)O)OO2)C(C)(C)CCC1
- GI50 [1]: > 5 µM
- Activity [2]: 40 Zone units
- GI50 [4]: > 5 µM
- Activity [5]: 110 Zone units
- GI50 [6]: > 5 µM
- Activity [7]: 80 Zone units
- GI50 [8]: 1.11 µM
- GI50 [9]: 1.77 µM
- Activity [10]: 80 Zone units
- GI50 [12]: > 5 µM
- GI50 [14]: > 5 µM
- GI50 [15]: > 5 µM
- GI50 [16]: > 5 µM
- Activity [17]: 110 Zone units
- GI50 [61]: > 5 µM
- GI50 [18]: > 5 µM
- GI50 [19]: > 5 µM
- GI50 [20]: > 5 µM
- GI50 [21]: > 5 µM
- GI50 [22]: > 5 µM
- GI50 [23]: > 5 µM
- GI50 [25]: > 5 µM
- GI50 [26]: > 5 µM
- GI50 [27]: > 5 µM
- GI50 [28]: > 5 µM
- Activity [65]: 100 Zone units
- GI50 [29]: > 5 µM
- GI50 [62]: 2.17 µM
- GI50 [30]: > 5 µM
- Activity [66]: 60 Zone units
- GI50 [32]: > 5 µM
- GI50 [33]: > 5 µM
- GI50 [34]: > 5 µM
- GI50 [36]: > 5 µM
- GI50 [37]: > 5 µM
- GI50 [38]: > 5 µM
- GI50 [39]: > 5 µM
- GI50 [41]: > 5 µM
- GI50 [42]: > 5 µM
- GI50 [43]: > 5 µM
- GI50 [63]: > 5 µM
- GI50 [44]: > 5 µM
- GI50 [45]: > 5 µM
- GI50 [64]: > 5 µM
- GI50 [46]: > 5 µM
- GI50 [47]: > 5 µM
- GI50 [48]: > 5 µM
- GI50 [49]: > 5 µM
- GI50 [50]: > 5 µM
- GI50 [51]: > 5 µM
- GI50 [52]: > 5 µM
- GI50 [53]: > 5 µM
- GI50 [54]: > 5 µM
- GI50 [55]: > 5 µM
- GI50 [56]: > 5 µM
- GI50 [58]: 0.43 µM
- GI50 [59]: > 5 µM
- GI50 [60]: > 5 µM
